Source: US11912645B2, “Lipopeptide compounds for the treatment of pain disorders” (INSERM (Institut National de la Santé et de la Recherche …, priority 2017, dated 2024)
Each block holds one compound with its values, some of them ahead of it.

Columns and labels:
[1] = system: mouse sensory neurons activated by capsaicin; experiment: Calcium flux in sensory neurons activated by capsaicin (TRPV1 agonist); type: cell-based
Procedure: (§1) FIG. 4: C12-Asn-GABA inhibits neuronal activation via the GABA B receptor. Amplitude of intracellular calcium mobilization (ΔF/F; right panel) in mouse sensory neurons and percentage of responding neurons (left panel) pretreated with increasing amounts of C12-Asn-GABA (black circle) or vehicle (HBSS; white circle) and treated with capsaicin (125 nM; A) or a mix of G protein coupled receptor agonists (histamine, serotonin and bradykinin 10 μM each; B). Data are represented as mean±SEM; n=4 independent experiments of 3 wells per condition and 30-80 neurons per well. […] Percentage of responding neurons pretreated with increasing amounts of saclofen (black circle) or vehicle (HBSS; white circle) and treated with C12-Asn-GABA (10 μM) and capsaicin (125 nM; C) or a mix of G protein coupled receptor agonist (histamine, serotonin and bradykinin 10 μM each; D). Data are represented as mean±SEM; n=4 independent experiments of 3 wells per condition and 30-80 neurons per well.
FIG. 7: C14-Asn-GABA inhibits neuronal activation by capsaicin. Amplitude of intracellular calcium mobilization (F/F; A) in mouse sensory neurons and percentage of responding neurons (B) pretreated with 10 μM of C14-Asn-GABA (black bar) or vehicle (HBSS; white bar) and treated with capsaicin (125 nM). Data are represented as mean±SEM; n=3 independent experiments of 3 wells per condition and 35-82 neurons per well.
(§2) Male C57B16 mice (6-8 weeks) were used to produce primary cultures of dorsal root ganglia (DRG) sensory neurons for calcium flux experiments, and to perform studies of colorectal distention and intestinal isotonic contraction. All procedures were approved by Institutional Animal Care Committees (CEEA 122).
To determine whether C12-Asn-GABA or C12-Asn-BABA is capable of signaling to sensory nerves, calcium mobilization studies were performed on primary cultures of mouse dorsal root ganglia (DRG) neurons. […]

[2] = system: mouse sensory neurons activated by mix of GPCR agonists (histamine, serotonin, bradykinin); experiment: Calcium flux in sensory neurons activated by mix of GPCR agonists; type: cell-based; conditions: serotonin 10 μM each, pretreatment with increasing amounts of compound
Procedure: as §1
as §2, with “122). […]” for “122).”

[3] = system: mouse dorsal root ganglia (DRG) neurons; experiment: Calcium mobilization in primary DRG sensory neurons, basal (unstimulated); type: cell-based; conditions: 10 μM
Procedure: as §2
To determine whether C12-Asn-GABA or C12-Asn-BABA is capable of signaling to sensory nerves, calcium mobilization studies were performed on primary cultures of mouse dorsal root ganglia (DRG) neurons. […] The same experiments were thereafter performed in neurons activated by either an agonist of the receptor calcium channel TRPV1 (capsaicin) or by a mix of agonists (histamine, serotonin and bradykinin) for G protein coupled receptors (GPCR) implicated in visceral hypersensitivity. Exposure of neurons to either capsaicin (125 nM) or the mix of GPCR agonists (histamine, bradykinin, serotonin, 10 μM each) induced an increase in calcium flux as shown by the higher % of responding neurons and amplitude of the response (ΔF/F) compared to the vehicle (FIG. 4A, 4B). […] To investigate whether the inhibitory effect of C12-Asn-GABA was associated to the GABA residue, neurons were treated with saclofen (10, 50, and 100 μM), a competitive antagonist of the GABAB receptor. […]

[4] = system: Caco-2 cells; experiment: Absorption across Caco-2 monolayer in transwell chambers; type: in vitro ADME, human; conditions: 800 ng apical, 24 h, LC-HRMS
Procedure: FIG. 5: C12-Asn-GABA crosses the epithelial barrier without modifying epithelial cells physiology. Caco-2 cells were cultivated into transwell chambers. After treatment with C12-Asn-GABA (800 ng) at the apical side, C12-Asn-GABA was quantified inside the cells and both the apical and basolateral compartments by LC-MS/MS (A); data are represented as mean±SEM, n=3 experiments of 3 wells per condition. Extracted ion chromatogram at the exact mass of GABA (104.0702 m/z) with a mass accuracy of 5 ppm of the GABA commercial standard (GABA (Std.) and apical and basolateral compartments after loading or not Caco-2 cells with 800 ng of GABA at the apical site (B); representation of one well, n=3 experiments of 3 wells per condition. Paracellular permeability assessed by the passage of FITC-dextran loaded at the apical side (C) and CXCL8 secretion assessed by ELISA (D) were monitored after treatment of Caco-2 cells at the apical side with C12-Asn-GABA (10 μM); data are represented as mean±SEM, n=3 experiments of 3 wells per condition. […]
Caco-2 cells were grown in Glutamax DMEM (Gibco, Invitrogen life technologies, Paisley, UK) supplemented with 10% heat-inactivated fetal bovine serum (FBS) (Gibco, Invitrogen life technologies, Paisley, UK), 1% nonessential amino acids and 1% antibiotics (100 U/ml penicillin and […] streptomycin (Gibco, Invitrogen life technologies, Grand Island, N.Y., USA) at 37° C. in a 5% C02 water-saturated atmosphere. Cells were seeded on Transwell inserts (Costar, Sigma-Aldrich, Saint-Quentin Fallavier, France) and absorption studies of C12-Asn-GABA and GABA were performed 16 days later. These compounds were quantified by LC-MS/MS in both apical and basolateral chambers as well as in cells. The effect of C12-Asn-GABA (1-100 μM) on paracellular permeability was also measured by mucosal-to-serosal flux of 4 kDa Fluorescein Isothiocyanate (FITC)-labelled dextran as previously described^31. […]
The initial barrier for any drug absorption is the intestinal epithelial cell wall. […] The transport of GABA alone across the cell monolayer was also assessed. […]

[5] = system: capsaicin-induced visceral hypersensitivity; experiment: Capsaicin-induced visceral hypersensitivity, visceromotor response to colorectal distension; type: in vivo, mouse; conditions: oral 25 mg/kg, 4 hours before intracolonic capsaicin 100 μg/mouse
Procedure: FIG. 6: C12-Asn-GABA inhibits capsaicin-induced visceral hypersensitivity without altering Intestinal contraction. Mice received intracolonic administration of C12-Asn-GABA (10 μM; black symbols) or vehicle (40% ethanol; white symbols) and 30 minutes or 4 hours later colon (A) and blood (B) were harvested in order to quantify C12-Asn-GABA by LC-MS/MS. Data are expressed as mean±SEM, n=8 mice per group. […] Mice received intracolonic administration of C12-Asn-GABA (10 μM; black symbols) or vehicle (40% ethanol; white symbols) and 30 minutes or 4 hours later an intracolonic administration of capsaicin (100 μg/mouse; square) or its vehicle (40% ethanol; circle). Fifteen minutes after capsaicin or vehicle treatment, visceromotor response (VMR) to increasing pressures of colorectal distension was performed. Data are expressed as mean±SEM, n=7-8 mice per group. […] Ex vivo measurement of duodenal mechanical contraction frequency (B) and amplitude (C) in response to Krebs-Ringer solution (control; white bar), to DMSO 0.2% (vehicle; gray bar) or to C12-Asn-GABA (10 μM; black bar). Data are expressed as mean±SEM, n=5-6 per group. Statistical analysis was performed using Kruskal-Wallis analysis of variance and subsequent Dunn's post hoc test.
FIG. 8: Trimebutine maleate has no effect on capsaicin-induced visceral hypersensitivity. Mice received an oral treatment with vehicle (PEG200, white circle) or with trimebutine maleate (25 mg/kg, black circle) and 4 hours later an intracolonic administration of capsaicin (100 μg/mouse; black and white circle). Fifteen minutes after capsaicin, visceromotor response (VMR) to increasing pressures of colorectal distension was performed. Data are expressed as mean±SEM, n=7-8 mice per group. […]
In a first set of experiment, we assessed the ability of the C12-Asn-GABA to cross the epithelial barrier, in vivo. […] The impact of C12-Asn-GABA on visceral hypersensitivity was assessed by measuring the visceromotor responses (VMR) to colorectal distension (CRD). […]

Compound: CCCCCCCCCCCC(=O)N[C@@H](CC(N)=O)C(=O)NC(C)CC(=O)O (stereo partly drawn) [C12-Asn-BABA, C12-Asn-β-aminobutyric]
calcium flux increase induced by capsaicin (% responding neurons, amplitude ΔF/F) ([1]; capsaicin 125 nM, pretreatment with increasing amounts of compound): had no effect
calcium flux increase induced by mix of GPCR agonists (% responding neurons, amplitude ΔF/F) [2]: had no effect
calcium mobilization under basal (unstimulated) conditions [3]: None of the isomers (10 μM) induced calcium mobilization

Compound: CCCCCCCCCCCCCC(=O)NC(CC(N)=O)C(=O)NCCCC(=O)O (stereo not drawn) [C14-Asn-GABA]
calcium flux increase induced by capsaicin (amplitude, % responding neurons) ([1]; 10 μM, pre-treated 5 minutes before capsaicin 125 nM): prevented by C14-Asn-GABA pretreatment

presence in the basal chamber [4]: not detected
Compound: NCCCC(=O)O [GABA, gamma-Aminobutyric acid, reference compound]

Compound: trimebutine maleate [reference compound]
hypersensitivity induced by capsaicin (VMR to CRD) [5]: has no effect
